According to patent publication US12599609B2, “Methods of treating fuchs endothelial corneal dystrophy after descemetorhexis” (KOWA COMPANY, LTD., priority 2021, dated 2026):
Where a name gives a salt, the structure may show the parent alone.

System: patients with FECD after descemetorhexis
Test: Phase 2 study of ripasudil eye drops after descemetorhexis in patients with Fuchs endothelial corneal dystrophy
Format: in vivo, human
Conditions: BID and QID dosing of a 0.4% formulation, topical to the eye
Source text: As a condition of participating in the clinical study described in Example 3, each patient will undergo descemetorhexis of a study eye selected by the investigator for surgery. A digital photo of the study eye is taken immediately before and immediately after the descemetorhexis. The investigator will perform descemetorhexis to remove central confluent guttae, removing an area of Descemet membrane with a diameter of 4.5 to 5.5 mm. The longest diameter and the shortest diameter must be recorded. Detailed procedures for performing descemetorhexis are described in several literature references, including, for example, Macsai M S, Shiloach M. Cornea. 2019; 38:529-534, and Moloney G, Congote D G, Hirnschall N, et al. Cornea. 2020 Jul. 31. doi: 10.1097/ICO.0000000000002437. Online ahead of print.
Recommended post-descemetorhexis concomitant therapy consists of broad spectrum antibiotic (0.5% moxifloxacin hydrochloride) instilled at least once daily for 1 week and glucocorticoid (1% prednisolone acetate) instilled 3 times daily for the first 7 days, followed by once daily for the next 7 days, and terminated thereafter. The investigator may add antibiotic and glucocorticoid dosing after this 14 days as rescue therapy if the investigator judges it necessary. When more than 1 different eye drop is administered (including study drug), the study drug must be administered first, followed by any non-study eye drop (after at least 5 minutes have passed).
In this U.S. FDA approved study, the primary objective is to investigate the effect of K-321 dosed for 12 weeks on central ECD in patients with FECD after descemetorhexis. […]

C[C@H]1CNCCCN1S(=O)(=O)c1cccc2cncc(F)c12 [ripasudil hydrochloride, Ripasudil]
demonstrated particular benefit: improving best corrected visual acuity (BCVA) | improving central corneal endothelial corneal density (ECD) | reduction of corneal edema
